From ChEMBL document CHEMBL3286201, “Antileishmanial activity of a series of N²,N⁴-disubstituted quinazoline-2,4-diamines” (J Med Chem, 2014)
pEC50: −log10 of the molar value.

How the values were obtained:
[1] = Elimination half life in Swiss Webster mouse plasma at 100 umol/kg, ip; type: ADME, cell-free; settings: read-out: beta t1/2 (converted)
Liver [2] = assay: AUC (last) in Swiss Webster mouse liver at 100 umol/kg, po; type: ADME, tissue-based; parameters: dose 100 umol/kg, time 0 - last, route oral; settings: in vivo
[3] = Aqueous solubility of the compound at pH 2; type: physicochemical; settings: buffer
[4] = Cmax in Swiss Webster mouse plasma at 100 umol/kg, ip; type: ADME, cell-free; parameters: dose 100 umol/kg, route intraperitoneal
Leishmania donovani [5] = assay: Antileishmanial activity against clinical isolate Leishmania donovani BPK206/0 infected in mouse J774A1 cells by colorimetric assay; settings: BPK206/0, J774.A1
Leishmania amazonensis = assay: Antileishmanial activity against intracellular amastigote stage of Leishmania amazonensis LV78 infected in mouse J774A1 cells by colorimetric assay; type: functional, organism-based; settings: LV78, J774.A1
Leishmania donovani [6] = assay: Antileishmanial activity against antimony-resistant clinical isolate Leishmania donovani BPK164/1 infected in mouse J774A1 cells by colorimetric assay; type: functional, organism-based; settings: BPK164/1, J774.A1
Liver [7] = assay: Half life in mouse liver microsomes at 1 uM after 60 mins by HPLC-MS/MS analysis; type: ADME; settings: 1 h
Liver [8] = assay: Cmax in Swiss Webster mouse liver at 100 umol/kg, po; type: ADME, tissue-based; parameters: dose 100 umol/kg, route oral; settings: in vivo
[9] = Aqueous solubility of the compound at pH 7.4; type: physicochemical; settings: buffer
[10] = pampa, pH 4
Description: (§1) Passive transcellular permeability of the compound at pH 4 by PAMPA

[11] = Cmax in Swiss Webster mouse plasma at 100 umol/kg, po; type: ADME, cell-free; parameters: dose 100 umol/kg, route oral
Leishmania donovani [12] = assay: Antileishmanial activity against intracellular amastigote stage of Leishmania donovani MHOM/ET/67/L82 infected in mouse J774A1 cells by colorimetric assay; type: functional, organism-based; settings: MHOM/ET/67/L82, J774.A1
Liver [13] = assay: Cmax in Swiss Webster mouse liver at 100 umol/kg, ip; type: ADME, tissue-based; parameters: dose 100 umol/kg, route intraperitoneal; settings: in vivo
Spleen [14] = assay: AUC (last) in Swiss Webster mouse spleen at 100 umol/kg, ip; type: ADME, tissue-based; parameters: dose 100 umol/kg, route intraperitoneal, time 0 - last; settings: in vivo
[15] = Distribution coefficient, log D of the compound at pH 3; type: physicochemical; settings: octanol/water
[16] = Distribution coefficient, log D of the compound at pH 7.4; type: physicochemical; settings: octanol/water
[17] = AUC (last) in Swiss Webster mouse plasma at 100 umol/kg, ip; type: ADME, cell-free; parameters: dose 100 umol/kg, route intraperitoneal, time 0 - last
[18] = AUC (last) in Swiss Webster mouse plasma at 100 umol/kg, po; type: ADME, cell-free; parameters: dose 100 umol/kg, route oral, time 0 - last
[19] = Cytotoxicity against mouse J774A1 cells after 72 hrs by MTT assay; type: cell-based; settings: J774.A1, 72 h
Liver [20] = assay: AUC (last) in Swiss Webster mouse liver at 100 umol/kg, ip; type: ADME, tissue-based; parameters: dose 100 umol/kg, time 0 - last, route intraperitoneal; settings: in vivo
Mus musculus [21] = assay: Toxicity in BALB/c mouse assessed as hypoactivity at 30 mg/kg, ip for 5 consecutive doses; type: organism-based; parameters: dose 30 mg/kg, route intraperitoneal; settings: in vivo
Spleen [22] = assay: Cmax in Swiss Webster mouse spleen at 100 umol/kg, ip; type: ADME, tissue-based; parameters: dose 100 umol/kg, route intraperitoneal; settings: in vivo
Spleen [23] = assay: AUC (last) in Swiss Webster mouse spleen at 100 umol/kg, po; type: ADME, tissue-based; parameters: dose 100 umol/kg, time 0 - last, route oral; settings: in vivo
[24] = pampa, pH 7.4
Description: (§2) Passive transcellular permeability of the compound at pH 7.4 by PAMPA

Spleen [25] = assay: Cmax in Swiss Webster mouse spleen at 100 umol/kg, po; type: ADME, tissue-based; parameters: dose 100 umol/kg, route oral; settings: in vivo
[26] = Elimination half life in Swiss Webster mouse plasma at 100 umol/kg, po; type: ADME, cell-free
Mus musculus [27] = assay: Toxicity in BALB/c mouse assessed as slowed breathing at 30 mg/kg, ip for 5 consecutive doses; type: organism-based; parameters: dose 30 mg/kg, route intraperitoneal; settings: in vivo
[28] = Selectivity index, ratio of EC50 for mouse J774A1 cells to EC50 for intracellular amastigote stage of Leishmania donovani MHOM/ET/67/L82; type: toxicity, cell-based, J774.A1; settings: read-out: Ratio EC50
[29] = Toxicity in BALB/c mouse assessed as tolerated dose treated ip for 5 consecutive doses; type: organism-based; settings: in vivo
physchem [30] = settings: pampa, pH 7.4
Description: as §2

physchem [31] = settings: pampa, pH 4
Description: as §1

| SMILES | half-life [1] [min] | AUClast (Liver [2]) [µM·h] | solubility [3] [µM] | Cmax [4] [µM] | pEC50 (Leishmania donovani [5]) | pEC50 (Leishmania amazonensis) | pEC50 (Leishmania donovani [6]) | t1/2 (Liver [7]) [min] | Cmax (Liver [8]) [µM] | solubility [9] [µM] | permeability [10] [×10⁻⁶ cm/s] | Cmax [11] [nM] | pEC50 (Leishmania donovani [12]) | Cmax (Liver [13]) [µM] | AUClast (Spleen [14]) [µM·h] | logD [15] | logD [16] | AUC(0-t) [17] [µM·h] | pEC50 [19] | permeability [24] [×10⁻⁶ cm/s] | other results |
| --- | --- | --- | --- | --- | --- | --- | --- | --- | --- | --- | --- | --- | --- | --- | --- | --- | --- | --- | --- | --- | --- |
| Cc1ccc2c(NCc3ccco3)nc(NC(C)C)nc2c1 | 324 | 29 | ≥ 30 | 2.67 | 5.38 | 5.39 | 5.42 | 9.4 | 5.2 | ≤ 20 | 67.2 | 250 | 6.08 | 48 | 71 | 1.58 | 3.61 | 4.6 | < 4.48 | 798 | AUC(0-t) [18]: 2.5 µM·h; AUClast (Liver [20]): 42 µM·h; Activity (Mus musculus [21]): Toxic; Cmax (Spleen [22]): 45.8 µM; AUClast (Spleen [23]): 7.4 µM·h; Cmax (Spleen [25]): 0.9 µM; half-life [26]: 1200 min |
| CCCCNc1nc(NCc2ccccc2)nc2ccccc12 | 1200 | 110 | ≥ 30 | 5.21 | 5.70 | 5.85 | 5.85 | 27 | 15.8 | ≤ 10 | 341 | 440 | 6.47 | 148 | 620 | 2.86 | 3.84 | 11 | 5.31 | 1020 | Activity (Mus musculus [27]): Toxic; AUC(0-t) [18]: 7.8 µM·h; AUClast (Liver [20]): 500 µM·h; Cmax (Spleen [22]): 163 µM; AUClast (Spleen [23]): 68 µM·h; Cmax (Spleen [25]): 7 µM |
| COc1cccc2nc(NC(C)C)nc(NCc3ccco3)c12 | – | – | ≥ 30 | – | – | 5.57 | – | – | – | ≤ 20 | 87 | – | 6.01 | – | – | 2.53 | 3.35 | – | 4.74 | 624 | selectivity ratio [28]: 19 |
| CNc1nc(NCc2ccccc2)nc2ccccc12 | – | – | ≥ 30 | – | 5.55 | 6.05 | 5.70 | – | – | ≤ 10 | 57.1 | – | 6.82 | – | – | 2 | 2.96 | – | 4.82 | 1720 | MTD at 5 consecutive doses [29]: 30 mg/kg; selectivity ratio [28]: 100 |
| NC(=O)N1c2ccccc2C=Cc2ccccc21 [CARBAMAZEPINE] | – | – | – | – | – | – | – | – | – | – | – | – | – | – | – | – | – | – | – | – | Papp (physchem [30]): 130 ×10⁻⁶ cm/s; Papp (physchem [31]): 108 ×10⁻⁶ cm/s |
| CNC(=C[N+](=O)[O-])NCCSCc1ccc(CN(C)C)o1.Cl [RANITIDINE HYDROCHLORIDE] | – | – | – | – | – | – | – | – | – | – | – | – | – | – | – | – | – | – | – | – | Papp (physchem [30]): 5.2 ×10⁻⁶ cm/s; Papp (physchem [31]): 2.2 ×10⁻⁶ cm/s |
